This is an account of results in ChEMBL document CHEMBL4665794, “Formicolides A and B, Antioxidative and Antiangiogenic 20-Membered Macrolides from a Wood Ant Gut Bacterium” (J Nat Prod, 2020).

The structures appear in SMILES notation.

In general, IC50 refers to the concentration that gives 50% inhibition.

Data set [1] addresses NAD(P)H dehydrogenase [quinone] 1 (Mus musculus) (UniProt Q64669). In words: Activation of quinone reductase in mouse Hepa1c1c7 cells at 20 uM incubated for 24 hrs by MTT based assay relative to control. The settings on record: filed as activator. It counts as cell-based. Background: Formazan colour is commonly taken as a measure of viable cells.
Data set [2] relates to HUVEC. In words: Anti-angiogenesis activity in HUVEC assessed as inhibition of VEGF-induced tube formation incubated for 6 hrs by capillary tube formation assay. It counts as functional, cell-based. As to conditions: Homo sapiens.
A short description of data set [3]: Cytotoxicity against mouse Hepa1c1c7 cells assessed as reduction in cell viability after 24 hrs by MTT assay. It counts as cell-based. As to conditions: hepa1c1c7, 24 h.

NAD(P)H dehydrogenase [quinone] 1 (Mus musculus), sequence (Q64669 whole entry): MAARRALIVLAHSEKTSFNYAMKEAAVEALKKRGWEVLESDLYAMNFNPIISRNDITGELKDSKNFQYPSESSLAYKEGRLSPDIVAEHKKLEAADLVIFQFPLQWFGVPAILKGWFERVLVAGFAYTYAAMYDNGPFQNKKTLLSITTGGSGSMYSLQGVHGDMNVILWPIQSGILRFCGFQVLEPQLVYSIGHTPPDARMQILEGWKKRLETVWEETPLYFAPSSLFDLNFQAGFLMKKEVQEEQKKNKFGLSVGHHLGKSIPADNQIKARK

Consider `C/C=C\[C@@H](O)CC[C@@H](C)[C@@H](O)[C@H](C)[C@]1(C)C/C=C/C=C/[C@H](O)C(=O)/C(C)=C/C=C/C(C)=C/[C@@H](O)/C(C)=C/CC(=O)O1`, for which the fold change (FC) in data set [1] was 2.08. The half-inhibitory concentration (IC50) in data set [2] was 13 µM. Further, the Activity result in data set [3] is given as “Non-Toxic”.
As for `CCN(CC)CCNC(=O)c1c(C)[nH]c(/C=C2\C(=O)Nc3ccc(F)cc32)c1C` [SUNITINIB], the IC50 in data set [2] was 1.5 µM.
For the compound `CCC[C@]1(O)C[C@H](O)[C@@H](C)[C@H]([C@H](C)[C@@H]2C/C=C/C=C/[C@H](O)C(=O)/C(C)=C/C=C/C(C)=C/[C@@H](O)/C(C)=C/CC(=O)O2)O1`, in data set [1], the fold change (FC) stood at 2.07. For the same compound, the concentration for half-maximal inhibition (IC50) in data set [2] came out at 20 µM. Also, the Activity result in data set [3] was “Non-Toxic”.
